Source: PubChem BioAssay AID328 (DTP/NCI, 2004)
Several values for one entry are separate records, joined by “and”; a condition that tells them apart may be missing. Identical values can stand only once. Toxic doses and inconclusive results are not listed.

Tested on: BDF1 mice, P388 leukemia ip, median survival T/C
Test: NCI In Vivo Anticancer Drug Screen. Data for tumor model P388 Leukemia (intraperitoneal) in B6D2F1 (BDF1) mice
Settings: endpoint: median survival time, higher = longer survival
Summary of the method: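 Vehicle-dosed animals serve as the reference; survival of compound-dosed, tumour-implanted mice is divided by it.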

[1] = dose: 100.0 mg/kg/injection, schedule: Q04DX003 (ip), vehicle: saline with Tween-80
[2] = dose: 200.0 mg/kg/injection, schedule: Q04DX003 (ip), vehicle: saline with Tween-80
[3] = dose: 400.0 mg/kg/injection, schedule: Q04DX003 (ip), vehicle: saline with Tween-80
[4] = dose: 50.0 mg/kg/injection, schedule: Q01DX009 (ip), vehicle: saline with Tween-80
[5] = dose: 100.0 mg/kg/injection, schedule: Q01DX009 (ip), vehicle: saline with Tween-80
[6] = dose: 200.0 mg/kg/injection, schedule: Q01DX009 (ip), vehicle: saline with Tween-80
[7] = dose: 12.5 mg/kg/injection, schedule: Q01DX009 (ip), vehicle: saline with Tween-80
[8] = dose: 25.0 mg/kg/injection, schedule: Q01DX009 (ip), vehicle: saline with Tween-80
[9] = dose: 100.0 mg/kg/injection, schedule: Q01DX001 (ip), vehicle: saline with Tween-80
[10] = dose: 200.0 mg/kg/injection, schedule: Q01DX001 (ip), vehicle: saline with Tween-80
[11] = dose: 400.0 mg/kg/injection, schedule: Q01DX001 (ip), vehicle: saline with Tween-80
[12] = dose: 200.0 mg/kg/injection, schedule: Q04DX003 (sc), vehicle: steriod suspending solution
[13] = dose: 400.0 mg/kg/injection, schedule: Q04DX003 (sc), vehicle: steriod suspending solution
[14] = dose: 25.0 mg/kg/injection, schedule: Q04DX003 (ip), vehicle: Klucel (hydroxypropylcellulose) (HPC)
[15] = dose: 50.0 mg/kg/injection, schedule: Q01DX009 (ip), vehicle: Klucel (hydroxypropylcellulose) (HPC)
[16] = dose: 50.0 mg/kg/injection, schedule: Q04DX003 (ip), vehicle: Klucel (hydroxypropylcellulose) (HPC)
[17] = dose: 100.0 mg/kg/injection, schedule: Q01DX009 (ip), vehicle: Klucel (hydroxypropylcellulose) (HPC)
[18] = dose: 200.0 mg/kg/injection, schedule: Q01DX009 (ip), vehicle: Klucel (hydroxypropylcellulose) (HPC)
[19] = dose: 400.0 mg/kg/injection, schedule: Q01DX009 (ip), vehicle: Klucel (hydroxypropylcellulose) (HPC)
[20] = dose: 25.0 mg/kg/injection, schedule: Q01DX009 (ip), vehicle: saline
[21] = dose: 400.0 mg/kg/injection, schedule: Q01DX009 (ip), vehicle: saline with Tween-80

ClCCN(CCCl)CCOc1ccc(-c2nc3ccccc3[nH]2)cc1
T/C (dose: 12.5 mg/kg/injection, schedule: Q04DX002 (ip), vehicle: saline): 189 % of control

CC(C)=CCC/C(C)=C/CNc1ncnc2nc[nH]c12
T/C [1]: 100 % of control
T/C [2]: 90 % of control
T/C [3]: 109 % of control and 111 % of control

ClCc1ccc2ccccc2n1
T/C [4]: 113 % of control
T/C [5]: 122 % of control
T/C (dose: 132.0 mg/kg/injection, schedule: Q01DX009 (ip), vehicle: saline with Tween-80): 113 % of control
T/C [6]: 122 % of control
T/C (dose: 300.0 mg/kg/injection, schedule: Q01DX009 (ip), vehicle: saline with Tween-80): 104 % of control

Oc1cc(CN2CCCC2)c(O)cc1CN1CCCC1
T/C [7]: 111 % of control
T/C [8]: 106 % of control
T/C [4]: 111 % of control
T/C [5]: 122 % of control

CCOC(=O)c1cc[nH]c1CC(=O)NCc1ccccc1
T/C [9]: 97 % of control
T/C [10]: 118 % of control
T/C [11]: 103 % of control

Cc1ccc(CC2c3ccccc3Nc3ccccc32)cc1
T/C [9]: 86 % of control
T/C [10]: 86 % of control
T/C [11]: 88 % of control

C[C@]12C[C@H](O)[C@H]3[C@@H](CCC4=CC(=O)CC[C@@]43C)[C@@H]1CC[C@@H]2C(=O)CO
T/C (dose: 45.0 mg/kg/injection, schedule: Q04DX003 (sc), vehicle: steriod suspending solution): 95 % of control
T/C (dose: 65.0 mg/kg/injection, schedule: Q04DX003 (sc), vehicle: steriod suspending solution): 100 % of control
T/C [12]: 115 % of control
T/C (dose: 264.0 mg/kg/injection, schedule: Q01DX009 (sc), vehicle: steriod suspending solution): 109 % of control
T/C (dose: 264.0 mg/kg/injection, schedule: Q04DX003 (sc), vehicle: steriod suspending solution): 110 % of control
T/C (dose: 400.0 mg/kg/injection, schedule: Q01DX009 (sc), vehicle: steriod suspending solution): 122 % of control
T/C [13]: 110 % of control

CCOc1ccc([N+](=O)[O-])cc1CN(CC)CC
T/C (dose: 5.0 mg/kg/injection, schedule: Q01DX009 (ip), vehicle: saline): 104 % of control
T/C (dose: 10.0 mg/kg/injection, schedule: Q01DX009 (ip), vehicle: saline): 95 % of control and 100 % of control
T/C (dose: 20.0 mg/kg/injection, schedule: Q01DX009 (ip), vehicle: saline): 113 % of control

C=Cc1c(C)c(O)cc2c1-c1ccc(O)c(C)c1CC2
T/C (dose: 6.25 mg/kg/injection, schedule: Q01DX009 (ip), vehicle: saline with Tween-80): 104 % of control
T/C [7]: 104 % of control
T/C [8]: 104 % of control
T/C [4]: 100 % of control

O=Cc1ccc(OC(=O)Nc2ccccc2)cc1
T/C [1]: 113 % of control
T/C [2]: 122 % of control
T/C [3]: 86 % of control

CO/N=C/c1ccc([N+](=O)[O-])s1
T/C (dose: 12.0 mg/kg/injection, schedule: Q04DX003 (ip), vehicle: Klucel (hydroxypropylcellulose) (HPC)): 118 % of control
T/C (dose: 25.0 mg/kg/injection, schedule: Q01DX009 (ip), vehicle: Klucel (hydroxypropylcellulose) (HPC)): 100 % of control
T/C [14]: 113 % of control
T/C [15]: 108 % of control
T/C [16]: 104 % of control
T/C [17]: 108 % of control

O=C1OC(c2ccccc2)=N/C1=C/c1cccs1
T/C [17]: 96 % of control
T/C [18]: 88 % of control
T/C [19]: 92 % of control

N=C(N)SCc1ccc(CSC(=N)N)s1
T/C (dose: 6.25 mg/kg/injection, schedule: Q01DX009 (ip), vehicle: saline): 97 % of control
T/C (dose: 12.5 mg/kg/injection, schedule: Q01DX009 (ip), vehicle: saline): 106 % of control
T/C [20]: 106 % of control

CCCCCCCCCCCCN1CCCC(O)C1 (stereo unspecified)
T/C [8]: 104 % of control
T/C [4]: 100 % of control
T/C (dose: 50.0 mg/kg/injection, schedule: Q04DX003 (ip), vehicle: saline with Tween-80): 120 % of control
T/C [1]: 90 % of control

CCCCCCCCCC(=O)CCCC
T/C [1]: 100 % of control
T/C [2]: 91 % of control
T/C [3]: 108 % of control

Cc1cc(Oc2ccc(Cl)cc2NC(=O)Nc2cccc(C(F)(F)F)c2)cc(S(=O)(=O)O)c1Cl
T/C (dose: 25.0 mg/kg/injection, schedule: Q01DX001 (ip), vehicle: other): 100 % of control
T/C (dose: 50.0 mg/kg/injection, schedule: Q01DX001 (ip), vehicle: other): 108 % of control
T/C (dose: 100.0 mg/kg/injection, schedule: Q01DX001 (ip), vehicle: other): 100 % of control

NNc1nncc2ccccc12
T/C (dose: 6.25 mg/kg/injection, schedule: Q04DX003 (ip), vehicle: saline): 90 % of control
T/C (dose: 12.5 mg/kg/injection, schedule: Q04DX003 (ip), vehicle: saline): 90 % of control
T/C [20]: 109 % of control
T/C (dose: 25.0 mg/kg/injection, schedule: Q04DX003 (ip), vehicle: saline): 113 % of control
T/C (dose: 50.0 mg/kg/injection, schedule: Q01DX009 (ip), vehicle: saline): 90 % of control
T/C (dose: 100.0 mg/kg/injection, schedule: Q04DX003 (ip), vehicle: saline): 100 % of control

Oc1ccc2ccccc2c1C1=NNc2n[nH]c(=S)n2N1
T/C (dose: 12.5 mg/kg/injection, schedule: Q04DX003 (ip), vehicle: Klucel (hydroxypropylcellulose) (HPC)): 104 % of control
T/C [14]: 108 % of control
T/C [16]: 104 % of control

Cc1ccc(C(=O)CO)cc1
T/C [4]: 98 % of control
T/C [5]: 102 % of control
T/C [6]: 98 % of control

CCCCCCCCCCCCCCCCOc1ccc(CC)cc1
T/C (dose: 50.0 mg/kg/injection, schedule: Q01DX001 (ip), vehicle: saline with Tween-80): 95 % of control
T/C [9]: 90 % of control
T/C [10]: 100 % of control

O=c1nc(-c2ccccc2)nc2ccccn12
T/C [4]: 101 % of control
T/C [5]: 106 % of control
T/C [6]: 111 % of control

N#CC12CC3CC(CC(C3)C1)C2
T/C (dose: 5.0 mg/kg/injection, schedule: Q01DX009 (ip), vehicle: saline with Tween-80): 100 % of control
T/C (dose: 20.0 mg/kg/injection, schedule: Q01DX009 (ip), vehicle: saline with Tween-80): 88 % of control

COC(C)C(O)(C(N)=O)C(C)C (stereo unspecified)
T/C [17]: 95 % of control
T/C (dose: 100.0 mg/kg/injection, schedule: Q04DX003 (ip), vehicle: Klucel (hydroxypropylcellulose) (HPC)): 100 % of control
T/C [18]: 86 % of control
T/C (dose: 200.0 mg/kg/injection, schedule: Q04DX003 (ip), vehicle: Klucel (hydroxypropylcellulose) (HPC)): 100 % of control
T/C [19]: 90 % of control
T/C (dose: 400.0 mg/kg/injection, schedule: Q04DX003 (ip), vehicle: Klucel (hydroxypropylcellulose) (HPC)): 100 % of control

CCCCC(=O)NC(=O)c1ccccc1
T/C [5]: 104 % of control
T/C [1]: 108 % of control
T/C [6]: 104 % of control
T/C [2]: 104 % of control
T/C [3]: 100 % of control

COc1cc(/C=N/NC(=O)COCC(=O)N/N=C/c2ccc(O)cc2OC)ccc1O
T/C (dose: 200.0 mg/kg/injection, schedule: Q01DX005 (ip), vehicle: saline with Tween-80): 96 % of control

O=C(O)CNC(=O)c1ccc([N+](=O)[O-])cc1
T/C [5]: 90 % of control
T/C [6]: 90 % of control
T/C [21]: 86 % of control

O=C(/C=C/c1ccccc1)c1cccc(Br)c1
T/C [5]: 91 % of control
T/C [1]: 109 % of control
T/C [6]: 98 % of control
T/C [2]: 104 % of control
T/C [21]: 119 % of control
T/C [3]: 104 % of control

COC(=O)c1ccc([N+](=O)[O-])c(OC)c1
T/C (dose: 75.0 mg/kg/injection, schedule: Q04DX003 (ip), vehicle: saline): 100 % of control
T/C (dose: 150.0 mg/kg/injection, schedule: Q04DX003 (ip), vehicle: saline): 100 % of control
T/C (dose: 300.0 mg/kg/injection, schedule: Q04DX003 (ip), vehicle: saline): 104 % of control

Cc1ccc(NC(=O)CO)cc1
T/C [15]: 102 % of control
T/C [17]: 97 % of control
T/C [18]: 104 % of control

COc1cccc2c1CCC1C2CC=C2CC3(CCC21C)OCCO3 (stereo unspecified)
T/C (dose: 50.0 mg/kg/injection, schedule: Q04DX003 (sc), vehicle: steriod suspending solution): 100 % of control
T/C (dose: 100.0 mg/kg/injection, schedule: Q04DX003 (sc), vehicle: steriod suspending solution): 104 % of control
T/C [12]: 91 % of control
T/C [13]: 100 % of control

Nc1c(C(=O)O)[nH]c(=O)[nH]c1=O
T/C [4]: 113 % of control
T/C [5]: 219 % of control
